{"source": "patent US9968098B2", "about": "“Synergistic Bacillus thuringiensis subsp. aizawai, Bacillus thuringiensis subsp. kurstaki and cyantraniliprole mixtures for diamondback moth, beet armyworm, southwestern corn borer, and corn earworm” (Valent BioSciences LLC, priority 2016, dated 2018)", "key": {"[1]": {"tested_on": "southwestern corn borer larvae", "test": "Leaf dip test, southwestern corn borer larvae", "type": "in vivo, Diatraea grandiosella", "conditions": "foliar, Bta/Btk 0.8125 ppm, cyantraniliprole 0.1 ppm, mixture 0.8125 ppm + 0.1 ppm (Ratio 1:0.12), read-out: % Efficacy", "from_the_text": "(§1) The following examples were used to determine the synergy of Bacillus thuringiensis subsp. aizawai, Bacillus thuringiensis subsp. kurstaki and cyantraniliprole when controlling diamondback moth, beet armyworm, sugarcane borer, soybean looper, corn earworm, cabbage looper, and southwestern corn borer. Sympatico™ emulsifiable suspension (available from Valent BioSciences LLC) was used as the source of Bacillus thuringiensis subsp. aizawai and Bacillus thuringiensis kurstaki. Sympatico™ contains about a 1:0.67 ratio of Bacillus thuringiensis subsp. kurstaki fermentation solids, spores and toxins to Bacillus thuringiensis subsp. aizawai fermentation solids, spores and toxins. Belt® was used as the source of cyantraniliprole. […] In each example below, the studies were conducted as follows.\n(§2) For these tests, standardized laboratory leaf dip methods were used to inoculate plant material with treatment(s). Dry, treated leaves were placed into Petri dishes (100×25 mm) containing filter paper wetted with 500 μl of distilled H2O (“dH2O”). Each dish was then infested with between 5 and 10 larvae, dependent on species. Efficacy ratings were taken at specified intervals. Synergy ratings were calculated for each test.\n(§3) % Cexp=A+B−(AB/100), where % Cexp is the expected efficacy and “in which A and B are the control levels given by the single [insecticides]. […]"}, "sugarcane borer larvae": {"tested_on": "sugarcane borer larvae", "test": "Leaf dip test, sugarcane borer larvae", "type": "in vivo", "conditions": "Diatraea saccharalis, foliar, Bta/Btk 0.8125 ppm, cyantraniliprole 1.0 ppm, mixture 0.8125 ppm + 1.0 ppm (Ratio 1:1.23), read-out: % Efficacy", "from_the_text": "as §1, §2, §3"}, "cabbage looper larvae": {"tested_on": "cabbage looper larvae", "test": "Leaf dip test, cabbage looper larvae", "type": "in vivo", "conditions": "Trichoplusia ni, foliar, Bta/Btk 0.8125 ppm, cyantraniliprole 0.50 ppm, mixture 0.8125 ppm + 0.50 ppm (Ratio 1:0.62), read-out: % Efficacy", "method": "(§4) Sympatico™ emulsifiable suspension (available from Valent BioSciences LLC) was used as the source of Bacillus thuringiensis subsp. aizawai and Bacillus thuringiensis kurstaki. Sympatico™ contains about a 1:0.67 ratio of Bacillus thuringiensis subsp. kurstaki fermentation solids, spores and toxins to Bacillus thuringiensis subsp. aizawai fermentation solids, spores and toxins. Belt® was used as the source of cyantraniliprole. […] In each example below, the studies were conducted as follows.\nas §2\n(§5) % Cexp=A+B−(AB/100), where % Cexp is the expected efficacy and “in which A and B are the control levels given by the single [insecticides].\nIn this study, the response of cabbage looper larvae to amounts of Bacillus thuringiensis subsp. aizawai, Bacillus thuringiensis subsp. kurstaki and cyantraniliprole was observed.\nBacillus thuringiensis subsp. aizawai/Bacillus thuringiensis subsp. kurstaki was applied at a concentration of 0.8125 ppm (0.8125 μg/ml). […]"}, "beet armyworm larvae": {"tested_on": "beet armyworm larvae", "test": "Leaf dip test, beet armyworm larvae", "type": "in vivo", "conditions": "Spodoptera exigua, foliar, Bta/Btk 0.8125 ppm, cyantraniliprole 1.0 ppm, mixture 0.8125 ppm + 1.0 ppm (Ratio 1:1.23), read-out: % Efficacy", "method": "as §4, §2, §5\nBacillus thuringiensis subsp. aizawai/Bacillus thuringiensis subsp. kurstaki was applied at a concentration of 0.8125 ppm (0.8125 μg/ml). Cyantraniliprole was applied at a concentration of 1.0 ppm (1.0 μg/ml). […]"}, "corn earworm larvae": {"tested_on": "corn earworm larvae", "test": "Leaf dip test, corn earworm larvae", "type": "in vivo", "conditions": "Helicoverpa zea, foliar, Bta/Btk 2.6 ppm, cyantraniliprole 10.0 ppm, mixture 2.6 ppm + 10.0 ppm (Ratio 1:3.85), read-out: % Efficacy", "method": "In each example below, the studies were conducted as follows.\nas §2\n% Cexp=A+B−(AB/100), where % Cexp is the expected efficacy and “in which A and B are the control levels given by the single [insecticides]. […] Adopting a conservative approach, Applicant will determine if synergy is present at ratios of ≥1.15.\nIn this study, the response of corn earworm larvae to amounts of Bacillus thuringiensis subsp. aizawai, Bacillus thuringiensis subsp. kurstaki and cyantraniliprole was observed.\nBacillus thuringiensis subsp. aizawai/Bacillus thuringiensis subsp. kurstaki was applied at a concentration of 2.6 ppm (2.6 μg/ml). Cyantraniliprole was applied at a concentration of 10.0 ppm (10.0 μg/ml). The Bacillus thuringiensis subsp. aizawai/Bacillus thuringiensis kurstaki/cyantraniliprole mixture was applied at a concentration of 2.6 ppm Bacillus thuringiensis subsp. kurstaki/Bacillus thuringiensis subsp. aizawai and 10.0 ppm cyantraniliprole."}, "diamondback moth larvae": {"tested_on": "diamondback moth larvae", "test": "Leaf dip test, diamondback moth larvae", "type": "in vivo", "conditions": "Plutella xylostella, foliar, Bta/Btk 0.8125 ppm, cyantraniliprole 0.12 ppm, mixture 0.8125 ppm + 0.12 ppm (Ratio 1:0.12), read-out: % Efficacy", "source_text": "The following examples were used to determine the synergy of Bacillus thuringiensis subsp. aizawai, Bacillus thuringiensis subsp. kurstaki and cyantraniliprole when controlling diamondback moth, beet armyworm, sugarcane borer, soybean looper, corn earworm, cabbage looper, and southwestern corn borer. Sympatico™ emulsifiable suspension (available from Valent BioSciences LLC) was used as the source of Bacillus thuringiensis subsp. aizawai and Bacillus thuringiensis kurstaki. Sympatico™ contains about a 1:0.67 ratio of Bacillus thuringiensis subsp. kurstaki fermentation solids, spores and toxins to Bacillus thuringiensis subsp. aizawai fermentation solids, spores and toxins. Belt® was used as the source of cyantraniliprole. The present invention is not limited to the commercial products used in the examples. […]\nFor these tests, standardized laboratory leaf dip methods were used to inoculate plant material with treatment(s). […] Synergy ratings were calculated for each test. […]\nIn order to determine synergy, rates below normal field rate ranges must be used. If normal field rate ranges are used, all of the larvae would die (combining a lethal or near lethal dose of Bacillus thuringiensis subsp. aizawai and Bacillus thuringiensis subsp. kurstaki with a lethal dose of cyantraniliprole would most likely lead to larvae death) in every treatment and synergy would not be able to be determined. […]"}, "soybean looper larvae": {"tested_on": "soybean looper larvae", "test": "Leaf dip test, soybean looper larvae", "type": "in vivo, Chrysodeixis includens", "conditions": "foliar, Bta/Btk 0.26 ppm, cyantraniliprole 1.0 ppm, mixture 0.26 ppm + 1.0 ppm (Ratio 1:15), read-out: % Efficacy", "method": "Belt® was used as the source of cyantraniliprole. […] In each example below, the studies were conducted as follows.\nas §2, §5\nIn this study, the response of soybean looper larvae to Bacillus thuringiensis subsp. aizawai, Bacillus thuringiensis subsp. kurstaki and cyantraniliprole was observed.\nBacillus thuringiensis subsp. aizawai/Bacillus thuringiensis subsp. kurstaki was applied at a concentration of 0.26 ppm (0.26 μg/ml). Cyantraniliprole was applied at a concentration of 1.0 ppm (1.0 μg/ml). The Bacillus thuringiensis subsp. aizawai/Bacillus thuringiensis kurstaki/cyantraniliprole mixture was applied at a concentration of 0.26 ppm Bacillus thuringiensis subsp. aizawai/Bacillus thuringiensis subsp. kurstaki and 1.0 ppm cyantraniliprole."}}, "note": "Read-outs that look alike come from different tables or passages of the source.", "data": [{"smiles": "CNC(=O)c1cc(C#N)cc(C)c1NC(=O)c1cc(Br)nn1-c1ncccc1Cl", "note": "[Cyantraniliprole, 3-Bromo-1-(3-chloro-2-pyridinyl)-N-[4-cyano-2-methyl-6-(methylcarbamoyl)phenyl]-1H-pyrazole-5-carboxamide]", "values": [{"measurement": "Emax at 0.1 ppm", "setting": "[1]; 24 h after treatment", "result": 15, "unit": "%"}, {"measurement": "Emax at 0.1 ppm", "setting": "[1]; 48 h after treatment", "result": 32, "unit": "%"}, {"measurement": "Emax at 1 ppm", "setting": "sugarcane borer larvae; 24 h after treatment", "result": 24, "unit": "%"}, {"measurement": "Emax at 1 ppm", "setting": "sugarcane borer larvae; 48 h after treatment", "result": 35, "unit": "%"}, {"measurement": "Emax at 0.5 ppm", "setting": "cabbage looper larvae; 24 h after treatment", "result": 18, "unit": "%"}, {"measurement": "Emax at 0.5 ppm", "setting": "cabbage looper larvae; 48 h after treatment", "result": 40, "unit": "%"}, {"measurement": "Emax at 1 ppm", "setting": "beet armyworm larvae; 24 h after treatment", "result": 20, "unit": "%"}, {"measurement": "Emax at 1 ppm", "setting": "beet armyworm larvae; 48 h after treatment", "result": 35, "unit": "%"}, {"measurement": "Emax at 10 ppm", "setting": "corn earworm larvae; 24 h after treatment", "result": 44, "unit": "%"}, {"measurement": "Emax at 10 ppm", "setting": "corn earworm larvae; 48 h after treatment", "result": 60, "unit": "%"}, {"measurement": "Emax at 0.12 ppm", "setting": "diamondback moth larvae; 24 h after treatment", "result": 29, "unit": "%"}, {"measurement": "Emax at 0.12 ppm", "setting": "diamondback moth larvae; 48 h after treatment", "result": 52, "unit": "%"}, {"measurement": "Emax at 1 ppm", "setting": "soybean looper larvae; 24 h after treatment", "result": 12, "unit": "%"}, {"measurement": "Emax at 1 ppm", "setting": "soybean looper larvae; 48 h after treatment", "result": 41, "unit": "%"}]}]}
